The record followed here is patent US8263605B2, “Modulators of muscarinic receptors” (Vertex Pharmaceutical Incorporated, priority 2006, dated 2012).

By Emax is commonly meant the greatest response seen or fitted, relative to the assay's reference.

Test [1] addresses T1, M1 muscarinic receptor (Homo sapiens, UniProt P11229).
T1 construct: expressed in transfected cells; host or cells: CHO (M1-CHO)
T1 sequence (P11229 1-460): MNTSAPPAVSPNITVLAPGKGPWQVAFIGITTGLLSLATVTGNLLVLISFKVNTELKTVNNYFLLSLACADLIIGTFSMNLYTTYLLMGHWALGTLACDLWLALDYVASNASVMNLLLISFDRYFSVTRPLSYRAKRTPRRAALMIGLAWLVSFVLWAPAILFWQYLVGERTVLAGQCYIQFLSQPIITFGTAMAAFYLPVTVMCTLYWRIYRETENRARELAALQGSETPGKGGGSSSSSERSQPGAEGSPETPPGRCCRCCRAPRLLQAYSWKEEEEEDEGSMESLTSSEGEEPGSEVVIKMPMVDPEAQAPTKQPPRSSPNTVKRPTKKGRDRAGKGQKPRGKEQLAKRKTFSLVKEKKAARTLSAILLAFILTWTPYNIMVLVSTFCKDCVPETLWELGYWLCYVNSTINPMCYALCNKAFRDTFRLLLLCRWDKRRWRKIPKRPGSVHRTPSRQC
The test is described as follows: Functional mobilization of intracellular calcium (FLIPR), M1-CHO cells. It is filed as cell-based. The note with it: for Emax: 100% efficacy is the maximum response obtained with the Carbachol control; for M1 Activity: CHO cells expressing M1, calcium mobilization. A digest of the protocol:
(§1)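 Recombinant CHO cells loaded with Fluo-3 AM or Calcium 3 dye; fluorescence recorded 60 s on FLIPR in pH 7.4 buffer with 1 mM probenecid, 0.5% DMSO. Agonist mode: compound alone; antagonist mode: 15 min preincubation (or co-application) then carbachol at EC80. Efficacy relative to maximal carbachol response.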
(Calcium assays in cells follow changes in intracellular calcium, usually with a dye or a luminescent sensor.)

In test [2] the target is T2, M4 muscarinic receptor (Homo sapiens, UniProt P08173).
T2 construct: expressed in transfected cells; host or cells: CHO (M4-CHO)
T2 sequence (P08173 1-479): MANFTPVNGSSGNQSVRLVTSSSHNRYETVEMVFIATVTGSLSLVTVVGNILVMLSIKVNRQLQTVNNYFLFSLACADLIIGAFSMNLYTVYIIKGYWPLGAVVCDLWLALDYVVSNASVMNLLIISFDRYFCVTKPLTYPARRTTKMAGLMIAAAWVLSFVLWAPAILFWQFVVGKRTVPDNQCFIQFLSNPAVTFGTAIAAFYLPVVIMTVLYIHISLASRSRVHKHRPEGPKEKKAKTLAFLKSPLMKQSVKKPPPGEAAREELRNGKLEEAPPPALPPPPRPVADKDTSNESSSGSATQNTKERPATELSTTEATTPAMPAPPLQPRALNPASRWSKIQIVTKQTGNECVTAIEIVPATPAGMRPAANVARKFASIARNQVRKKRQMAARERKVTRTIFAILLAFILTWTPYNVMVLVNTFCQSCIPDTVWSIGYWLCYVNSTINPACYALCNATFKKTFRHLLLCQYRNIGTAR
In words: Functional mobilization of intracellular calcium (FLIPR), M4-CHO cells. It is filed as cell-based. The note with it: for Emax: 100% efficacy is the maximum response obtained with the Carbachol control; for M4 Activity: CHO cells expressing M4, calcium mobilization. A digest of the protocol:
as §1

The structures appear in SMILES notation.

Regarding `Cc1cnc(N2CCC(N3CCC4(CC3)CN(C(=O)N(C)C)c3ccccc34)CC2)s1` [compound 116], in test [1], the Emax is below 25% and the “M1 Activity” value is “+ (activity was measured to be greater than 10.0 μM)”. In test [2], the Emax is below 25% and the “M4 Activity” value is listed as “+ (activity was measured to be greater than 10.0 μM)”.

In the case of `CN(C)C(=O)N1CC2(CCN(C3CCN(c4nc5ccccc5s4)CC3)CC2)c2ccccc21` [compound 117], in test [1], the Emax is below 25% and the “M1 Activity” value is given as “+ (activity was measured to be greater than 10.0 μM)”. In test [2], the Emax is below 25% and the “M4 Activity” value is “++ (activity was measured to be from 2.0 μM to 10.0 μM)”.

In the case of `CN(C)C(=O)N1CC2(CCN(C3CCN(c4nc5ccccc5o4)CC3)CC2)c2ccccc21` [compound 118], in test [1], the Emax was in the range of 25 to 100% and the “M1 Activity” value is on record as “++ (activity was measured to be from 2.0 μM to 10.0 μM)”. In test [2], the Emax is below 25% and the “M4 Activity” value is listed as “++ (activity was measured to be from 2.0 μM to 10.0 μM)”.
